What was measured:
[1] = test system: Host Versus Graft Reaction (HvGR) in the Rat; assay: Inhibitory activity against host versus graft reaction (HvGR) in the rat; assay type: in vivo; settings: Lewis rats injected with WKAH/Hkm spleen cells into hind foot pads; oral, once a day for 4 successive days; popliteal lymph node weight
Source text: Determination of the Inhibitory Activity Against Host Versus Graft Reaction (HvGR) in the Rat
(1) Two Strains of Rats (Lewis Rats (Male, 6 Weeks Old, Charles River Japan) and WKAH/Hkm (Male, 7 Weeks Old, SLC Japan)) Were Used. Five Rats (Host) Per Group Were Used.
The spleen cells were isolated from the spleen of the rats and 1×10^8 cells were suspended in the RPMI640 medium (LIFE TECHNOLOGIES, Rockville Md. USA). One hundred microliter (1×10^7 cells) of the spleen cell suspension whose cells were isolated from either WKAH/Hkm rats or Lewis rats were subcutaneously injected into the bilateral feet pad of the hindlimbs of the Lewis rat.
(3) Administration of the Compound
The compound was suspended in 0.5% tragacanth solution The suspended compound was orally administered to rats in the drug-treated group (Lewis rats injected with spleen cells isolated from AH/Hkm rats, and treated with the compound) at a volume of 5 ml/kg. The treatment was started on the day of the spleen cell injection, once a day, for 4 successive days. Tragacanth solution (0.5%) was orally administered, instead of the suspension of the test compound, to the rats in the same strain group (Lewis rats injected with spleen cells which were isolated from the Lewis rats) and to the rats in the control group (Lewis rats injected spleen cells isolated from WKAH/Hkm rats, and not treated with the test compound).
(4) Determination Procedures for Inhibitory Activity Against HvGR
The average weight of the popliteal lymph node of the same strain rats was subtracted from the weight of the popliteal lymph node of the individual rat (popliteal lymph gland weight due to HvGR). The inhibition rate of the popliteal lymph node weight due to HvGR of the individual rat treated with the test compound against the average weight of the control rats was calculated. The inhibitory activity of the test compound was expressed as an ID50 value (mg/kg) calculated from the dose-inhibition rate by the least square method.

Adjuvant Arthritis = assay: Inhibitory activity on induction of adjuvant arthritis; assay type: in vivo, rat; settings: adjuvant (Mycobacterium butylricum) in right hind paw of female Lewis rats; oral, once daily for 21 days; swelling volume of right hind paw
Experimental: Determination of the Inhibitory Activity of the Compounds of the Present Invention on Induction of Adjuvant Arthritis
1. Preparation of Adjuvant
Heat-killed, Mycobacterium butylricum was suspended in mineral oil at a concentration of 2 mg/ml and sonicated with an ultrasonic apparatus.
2. Preparation of the Test Compound.
The test compound was suspended in 0.5% Tragacanth solution.
3. Induction of Adjuvant Arthritis
The adjuvant prepared as described in 1 was intradermally injected into the right hind paw of the female rats (usually Lewis rats were used) at a volume of 0.05 ml. Five rats per group were used. In one group of rats, adjuvant was not injected for the control group.
4. Administration of the Compound
The compound solution prepared as described in 2 was orally administered to rats from the injection day of the adjuvant, once daily for 21 days, at a dose of 5 ml/kg. Tragacanth solution (0.5%) was orally administered to one group of rats treated with adjuvant (the control group) and also to rats not treated with adjuvant.
5. Calculation Methods of Inhibitory Activity of the Compound
The volume of the right hind paw was determined with a plethymometer. The volume of the intact paw was subtracted from the individual volume, and the difference was used as the swelling volume. Then the inhibitory activity of the compound was calculated from the individual swelling volume of rats treated with the compound and that in the swelling volume of the control rats. The ID50 value of the compound was obtained from the doses treated and the average inhibitory rate of the group.

With `COc1cccc(OCC#Cc2ccc(CC[C@@](C)(N)CO)s2)c1.O=C(O)/C=C\C(=O)O` [Example 43, (2R)-Amino-2-methyl-4-{5-[3-(3-methoxylphenoxy)propynyl]thiophen-2-yl}butan-1-ol Maleate] the “HvGR ID50 values” [1] was 0.0730 mg/kg.

`Cc1ccc(OCC#Cc2ccc(CC[C@@](C)(N)CO)s2)cc1C.O=C(O)/C=C\C(=O)O` [Example 46, (2R)-Amino-2-methyl-4-{5-[3-(3,4-dimethylphenoxy)propynyl]thiophen-2-yl}butan-1-ol Maleate] was tested, and the “HvGR ID50 values” [1] was 0.0454 mg/kg.

Work on `Cc1ccc(OCC#Cc2ccc(CC[C@@](C)(N)CO)s2)cc1.O=C(O)/C=C\C(=O)O` [Example 34, (2R)-Amino-2-methyl-4-{5-[3-(4-methylphenoxy)propynyl]thiophen-2-yl}butan-1-ol Maleate] yielded an ID50 value (Adjuvant Arthritis) of 0.0470 mg/kg.

With `COc1ccc(OCC#Cc2ccc(CC[C@@](C)(N)CO)s2)cc1OC.O=C(O)/C=C\C(=O)O` [Example 40, (2R)-Amino-2-methyl-4-{5-[3-(3,4-dimethoxphenoxy)propynyl]thiophen-2-yl}butan-1-ol Maleate] the “HvGR ID50 values” [1] was 0.0683 mg/kg.

With `C[C@](N)(CO)CCc1ccc(C#CCCCC2CCCCC2)s1` [Example 1, (2R)-Amino-2-methyl-4-[5-(5-Cyclohexylpent-1-ynyl)thiophen-2-yl]butan-1-ol] the ID50 value (Adjuvant Arthritis) was 0.0897 mg/kg and the “HvGR ID50 values” [1] was 0.0843 mg/kg.

In the case of `CCCCCCCCc1ccc(CCC(N)(CO)CO)cc1.Cl` [Reference Compound 1, reference compound], the ID50 value (Adjuvant Arthritis) is reported as 0.1666 mg/kg and the “HvGR ID50 values” [1] is reported as 0.354 mg/kg.

For `C[C@](N)(CO)CCc1ccc(CCCCCC2CCCCC2)s1` [Example 11, (2R)-Amino-2-methyl-4-[5-(5-Cyclohexylpent)thiophen-2-yl]butan-1-ol], the “HvGR ID50 values” [1] was 0.0844 mg/kg.

Reference: US6723745B2, “Amino alcohol derivatives” (Sankyo Company, Limited, priority 2000, dated 2004)
